Results taken from patent publication US6197771A, “Glutamate (ampa/kainate) receptor antagonists: N-substituted fused azacycloalkylquinoxalinediones” (Warner-Lambert Company, priority 2000, dated 2001).
Where a name gives a salt, the structure may show the parent alone.

What was measured:
AMPA receptor = AMPA receptor binding (Honore et al.)
[1] = target: kainate site (non-NMDA receptor); experiment: Kainate site (non-NMDA receptor) binding (London and Coyle)
[2] = target: T1, glycine site of the NMDA receptor (Rattus norvegicus, UniProt P35439); experiment: Binding to the glycine site of the NMDA receptor (Jones et al.)
T1 construct: from tissue

| SMILES | IC50 (AMPA receptor) | IC50 [1] | inhibition at 10 µM [2] |
| --- | --- | --- | --- |
| O=c1[nH]c2cc(Br)c3c(c2[nH]c1=O)CN(Cc1ccccc1)CC3 [Example 8, 6-Bromo-1,4,7,8,9,10-hexahydro-9-(phenylmethyl)pryrido[3,4-f]quinoxaline-2,3-dione] | 20 µM | 16 µM | < 50% |
| O=c1[nH]c2cc(Br)c3c(c2[nH]c1=O)CN(CCc1ccccc1)CC3 [Example 11, 6-Bromo-1,4,7,8,9,10-hexahydro-9-(2-phenylethyl)pyrido[3,4-f]quinoxaline-2,3-dione] | > 100 µM | 9 µM | < 50% |
| O=c1[nH]c2cc(Br)c3c(c2[nH]c1=O)CN(CCCc1ccccc1)CC3 [Example 14, 6-Bromo-1,4,7,8,9,10-hexahydro-9-(3-phenylpropyl)pyrido[3,4-f]quinoxaline-2,3-dione] | > 100 µM | 40 µM | < 50% |
| O=c1[nH]c2ccc3c(c2[nH]c1=O)CN(Cc1ccc(C(F)(F)F)cc1)CC3 [Example 17, 1,4,7,8,9,10-Hexahydro-9-[[4-(trifluoromethyl)phenyl]methyl]pyrido[3,4-f]quinoxaline-2,3-dione] | > 100 µM | > 100 µM |  |
| O=c1[nH]c2cc([N+](=O)[O-])c3c(c2[nH]c1=O)CN(Cc1ccc(C(F)(F)F)cc1)CC3 [Example 18] | 3.1 µM | 34 µM |  |
| O=c1[nH]c2ccc3c(c2[nH]c1=O)CCN(Cc1ccc(C(F)(F)F)cc1)C3 [Example 26] | > 100 µM | > 100 µM |  |
| O=c1[nH]c2ccc3c(c2[nH]c1=O)CNCC3 [Example 30, 1,4,7,8,9,10-Hexahydropyrido[3,4-f]quinoxaline-2,3-dione] | 84 µM | 56 µM |  |
| O=c1[nH]c2cc([N+](=O)[O-])c3c(c2[nH]c1=O)CNCC3 [Example 31, 1,4,7,8,9,10-Hexahydro-6-nitropyrido[3,4-f]quinoxaline-2,3-dione] | 51 µM | 0.48 µM | 70% |
| CC(C)(C)OC(=O)N1CCC(C(=O)N2CCc3ccc4[nH]c(=O)c(=O)[nH]c4c3C2)CC1 [Example 32, 1,1-dimethylethyl 4-[(1,2,3,4,7,8,9,10-octahydro-2,3-dioxopyrido[3,4-f]quinoxaline-9-yl)carbonyl]-1-piperidine carboxylate] | > 100 µM | 65 µM |  |
| CC(C)(C)OC(=O)N1CCC(C(=O)N2CCc3c([N+](=O)[O-])cc4[nH]c(=O)c(=O)[nH]c4c3C2)CC1 [Example 34, 1,1-dimethylethyl 4-[(1,2,3,4,7,8,9,10-octahydro-6-nitro-2,3-dioxopyrido[3,4-f]quinoxaline-9-yl)carbonyl]-1-piperidine carboxylate] | 0.58 µM | 6.9 µM | 81% |
| O=C(c1ccccc1)N1CCc2c([N+](=O)[O-])cc3[nH]c(=O)c(=O)[nH]c3c2C1 [Example 35, 9-Benzoyl-1,4,7,8,9,10-hexahydro-6-nitropyrido[3,4-f]quinoxaline-2,3-dione] | 0.37 µM | 1.38 µM | 80% |
| O=C(C1CCCCC1)N1CCc2c([N+](=O)[O-])cc3[nH]c(=O)c(=O)[nH]c3c2C1 [Example 36, 9-(Cyclohexylcarbonyl)-1,4,7,8,9,10-hexahydro-6-nitropyrido[3,4-f]quinoxaline-2,3-dione] | 0.34 µM | 5.87 µM | 88% |
| O=C(c1ccc(Cl)cc1)N1CCc2c([N+](=O)[O-])cc3[nH]c(=O)c(=O)[nH]c3c2C1 [Example 37, 9-(4-Chlorobenzoyl)-1,4,7,8,9,10-hexahydro-6-nitropyrido[3,4-f]quinoxaline-2,3-dione] | 0.84 µM | 8.2 µM | 74% |
| O=C(Cc1ccccc1)N1CCc2c([N+](=O)[O-])cc3[nH]c(=O)c(=O)[nH]c3c2C1 [Example 38, 1,4,7,8,9,10-Hexahydro-6-nitro-9-(phenylacetyl)pyrido(3,4-f]quinoxaline-2,3-dione] | 0.24 µM | 1.62 µM | 99% |
| O=C(Cc1ccc(Cl)cc1)N1CCc2c([N+](=O)[O-])cc3[nH]c(=O)c(=O)[nH]c3c2C1 [Example 39] | 0.84 µM | 8.2 µM | 98% |
| O=c1[nH]c2cc(Br)c3c(c2[nH]c1=O)CCN(Cc1cccc(C(F)(F)F)c1)C3 [Example 48, 6-Bromo-1,4,7,8,9,10-Hexahydro-8-[[3-(trifluoromethyl)methyl]pyrido[3,4-f]quinoxaline-2,3-dione hydrochloride] | 21 µM | 67 µM |  |
| O=c1[nH]c2cc(Br)c3c(c2[nH]c1=O)CCN(CCCc1ccccc1)C3 [Example 54, 6-Bromo-1,4,7,8,9,10-hexahydro-8-(3-Phenylproyl)pyrido[3,4-f]quinoxaline-2,3-dione hydrochloride] | 43 µM | > 100 µM |  |
